ChEMBL document CHEMBL1201862, “PubChem BioAssay data set” (2004)
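Tested at 5 concentrations; 48 h exposure; 96-well plates; endpoints linearly interpolated, else capped at highest concentration. GI50 marks 50% less growth.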 The source made the active and inactive calls. Cut-off read from the data, not from the text of the source: active = GI50 up to about 1.1 µM and inactive = higher.

Columns and labels:
Assay in all cases: NCI anticancer screen, dose series, 48 h
Malme-3M = system: Malme-3M
SW-620 = system: SW-620
HL-60 = system: HL-60
NCI-H23 = system: NCI-H23
PC-3 = system: PC-3
M14 = system: M14
UACC-257 = system: UACC-257
BT-549 = system: BT-549
SK-OV-3 = system: SK-OV-3
MDA-MB-231 = system: MDA-MB-231
K562 = system: K562
HT-29 = system: HT-29
NCI-H460 = system: NCI-H460
786-0 = system: 786-0
NCI/ADR-RES = system: NCI/ADR-RES
T47D = system: T47D
ACHN = system: ACHN
NCI-H226 = system: NCI-H226
OVCAR-4 = system: OVCAR-4
SNB-19 = system: SNB-19
RXF 393 = system: RXF 393
EKVX = system: EKVX
HCT-15 = system: HCT-15
SF-268 = system: SF-268
A549 = system: A549
SR = system: SR
SK-MEL-28 = system: SK-MEL-28
HCT-116 = system: HCT-116
A498 = system: A498
CCRF-CEM = system: CCRF-CEM
U-251 = system: U-251
LOX IMVI = system: LOX IMVI
UACC-62 = system: UACC-62
HCC 2998 = system: HCC 2998
DU-145 = system: DU-145
MDA-MB-435 = system: MDA-MB-435
Hs-578T = system: Hs-578T
SF-295 = system: SF-295
HOP-92 = system: HOP-92
RPMI-8226 = system: RPMI-8226
SK-MEL-5 = system: SK-MEL-5
COLO 205 = system: COLO 205
SNB-75 = system: SNB-75
OVCAR-8 = system: OVCAR-8
HOP-62 = system: HOP-62
MDA-N = system: MDA-N
SN12C = system: SN12C
OVCAR-5 = system: OVCAR-5
CAKI-1 = system: CAKI-1
TK-10 = system: TK-10
OVCAR-3 = system: OVCAR-3
NCI-H522 = system: NCI-H522
SF-539 = system: SF-539
KM12 = system: KM12
MOLT-4 = system: MOLT-4
MCF7 = system: MCF7
UO-31 = system: UO-31
IGROV-1 = system: IGROV-1
SK-MEL-2 = system: SK-MEL-2

In the case of `COc1ccc(SCc2cc(OCc3ccccc3)c(OCc3ccccc3)c(OCc3ccccc3)c2)cc1`, the GI50 (Malme-3M) is reported as 1.83 µM (inactive), the GI50 (SW-620) is reported as 1.7 µM (inactive) and the GI50 (HL-60) is reported as 1.87 µM (inactive). The GI50 (NCI-H23) was 1.75 µM (inactive), the GI50 (PC-3) was 1.92 µM (inactive) and the GI50 (M14) was 1.92 µM (inactive). For the same molecule, the GI50 (UACC-257) was 1.71 µM (inactive), the GI50 (BT-549) was 2.24 µM (inactive) and the GI50 (SK-OV-3) was 1.77 µM (inactive). The GI50 (MDA-MB-231) was 1.36 µM (inactive), the GI50 (K562) was 1.21 µM (inactive) and the GI50 (HT-29) was 1.52 µM (inactive). For the same molecule, the GI50 (NCI-H460) was 2.38 µM (inactive), the GI50 (786-0) was 1.55 µM (inactive) and the GI50 (NCI/ADR-RES) was 1.71 µM (inactive). For the same molecule, the GI50 (T47D) was 2.69 µM (inactive), the GI50 (ACHN) was 1.73 µM (inactive) and the GI50 (NCI-H226) was 1.9 µM (inactive). The GI50 (OVCAR-4) was 1.8 µM (inactive), the GI50 (SNB-19) was 1.72 µM (inactive) and the GI50 (RXF 393) was 1.92 µM (inactive). The GI50 (EKVX) was 2 µM (inactive), the GI50 (HCT-15) was 1.84 µM and the GI50 (SF-268) was 1.77 µM (inactive). The GI50 (A549) was 2.16 µM (inactive), the GI50 (SR) was 0.493 µM (active) and the GI50 (SK-MEL-28) was 2.07 µM (inactive). The GI50 (HCT-116) was 1.75 µM (inactive), the GI50 (A498) was 2.06 µM (inactive) and the GI50 (CCRF-CEM) was 1.72 µM (inactive). For the same molecule, the GI50 (U-251) was 1.77 µM (inactive), the GI50 (LOX IMVI) was 1.54 µM (inactive) and the GI50 (UACC-62) was 2.11 µM (inactive). For the same molecule, the GI50 (HCC 2998) was 1.43 µM (inactive), the GI50 (DU-145) was 1.75 µM (inactive) and the GI50 (MDA-MB-435) was 1.76 µM (inactive). For the same molecule, the GI50 (Hs-578T) was 2.12 µM (inactive), the GI50 (SF-295) was 1.87 µM (inactive) and the GI50 (HOP-92) was 1.65 µM (inactive). For the same molecule, the GI50 (RPMI-8226) was 2.84 µM (inactive), the GI50 (SK-MEL-5) was 1.84 µM (inactive) and the GI50 (COLO 205) was 2.85 µM (inactive). The GI50 (SNB-75) was 1.58 µM (inactive), the GI50 (OVCAR-8) was 1.78 µM (inactive) and the GI50 (HOP-62) was 1.81 µM (inactive). The GI50 (MDA-N) was 1.83 µM (inactive), the GI50 (SN12C) was 1.79 µM (inactive) and the GI50 (OVCAR-5) was 1.62 µM (inactive). The GI50 (CAKI-1) was 1.6 µM (inactive), the GI50 (TK-10) was 1.89 µM (inactive) and the GI50 (OVCAR-3) was 1.65 µM (inactive). The GI50 (NCI-H522) was 1.83 µM (inactive), the GI50 (SF-539) was 1.93 µM (inactive) and the GI50 (KM12) was 1.64 µM (inactive). The GI50 (MOLT-4) was 1.56 µM (inactive), the GI50 (MCF7) was 1.71 µM (inactive) and the GI50 (UO-31) was 1.76 µM (inactive). For the same molecule, the GI50 (IGROV-1) was 1.79 µM (inactive).
For `COC(=O)C1Cc2c([nH]c3ccccc23)C(c2cccc(O)c2)N1` (stereo unspecified), the GI50 (SW-620) was 24.3 µM (inactive), the GI50 (HL-60) was 22.2 µM (inactive) and the GI50 (NCI-H23) was 29.8 µM (inactive). For the same molecule, the GI50 (PC-3) was 27.3 µM (inactive), the GI50 (M14) was 21.3 µM (inactive) and the GI50 (UACC-257) was 90.8 µM (inactive). For the same molecule, the GI50 (BT-549) was 22.3 µM (inactive), the GI50 (SK-OV-3) was 56.4 µM (inactive) and the GI50 (MDA-MB-231) was 22.3 µM (inactive). For the same molecule, the GI50 (K562) was 33.1 µM (inactive), the GI50 (HT-29) was 27.6 µM (inactive) and the GI50 (NCI-H460) was 26.3 µM (inactive). The GI50 (786-0) was 49.1 µM (inactive), the GI50 (NCI/ADR-RES) was 22.9 µM (inactive) and the GI50 (T47D) was 41.5 µM (inactive). The GI50 (ACHN) was 60 µM (inactive), the GI50 (NCI-H226) was 40.7 µM (inactive) and the GI50 (OVCAR-4) was 41.2 µM (inactive). For the same molecule, the GI50 (SNB-19) was 42.5 µM (inactive), the GI50 (SK-MEL-2) was 27 µM (inactive) and the GI50 (RXF 393) was 25.8 µM (inactive). For the same molecule, the GI50 (EKVX) was 40.3 µM (inactive), the GI50 (HCT-15) was 34 µM and the GI50 (SF-268) was 40.8 µM (inactive). For the same molecule, the GI50 (A549) was 41 µM (inactive), the GI50 (SR) was 28.2 µM (inactive) and the GI50 (SK-MEL-28) was 28.7 µM (inactive). For the same molecule, the GI50 (HCT-116) was 35.7 µM (inactive), the GI50 (A498) was 42.9 µM (inactive) and the GI50 (CCRF-CEM) was 19 µM (inactive). The GI50 (U-251) was 35 µM (inactive), the GI50 (LOX IMVI) was 50.7 µM (inactive) and the GI50 (UACC-62) was 44.2 µM (inactive). For the same molecule, the GI50 (HCC 2998) was 25.6 µM (inactive), the GI50 (DU-145) was 23.4 µM (inactive) and the GI50 (MDA-MB-435) was 18.2 µM (inactive). For the same molecule, the GI50 (Hs-578T) was 37.4 µM (inactive), the GI50 (SF-295) was 45.7 µM (inactive) and the GI50 (HOP-92) was 28.4 µM (inactive). For the same molecule, the GI50 (RPMI-8226) was 28.4 µM (inactive), the GI50 (SK-MEL-5) was 40.9 µM (inactive) and the GI50 (COLO 205) was 30.5 µM (inactive). The GI50 (SNB-75) was 23.6 µM (inactive), the GI50 (OVCAR-8) was 32.1 µM (inactive) and the GI50 (HOP-62) was 75.9 µM (inactive). The GI50 (MDA-N) was 19.5 µM (inactive), the GI50 (SN12C) was 40.9 µM (inactive) and the GI50 (OVCAR-5) was 28.8 µM (inactive). For the same molecule, the GI50 (CAKI-1) was 57 µM (inactive), the GI50 (TK-10) was > 100 µM (inactive) and the GI50 (OVCAR-3) was 42 µM (inactive). For the same molecule, the GI50 (NCI-H522) was 33.6 µM (inactive), the GI50 (SF-539) was 33.4 µM (inactive) and the GI50 (KM12) was 32.1 µM (inactive). For the same molecule, the GI50 (MOLT-4) was 31.6 µM (inactive), the GI50 (MCF7) was 27.3 µM (inactive) and the GI50 (UO-31) was 80 µM (inactive). For the same molecule, the GI50 (IGROV-1) was 37.8 µM (inactive).
